Data reported in PubChem BioAssay (NCI).
Where “and” joins values, the source holds several entries; their conditions need not be identical. Equal values may be shown once.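 Cultured in 96-well plates, cells were exposed to test compound for 48 hours across five concentrations. GI50 = concentration required for 50% inhibition of growth. TGI denotes the concentration required for complete inhibition of growth.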

Key:
Assay in all cases: NCI tumour cell line growth inhibition, 48 h
[1] = tested on: 786-0 renal
[2] = tested on: CAKI-1 renal
[3] = tested on: M14 melanoma
[4] = tested on: NCI-H522 lung
[5] = tested on: NCI/ADR-RES ovarian
[6] = tested on: OVCAR-3 ovarian
[7] = tested on: SK-OV-3 ovarian
[8] = tested on: SR leukemia
[9] = tested on: SW-620 colon
[10] = tested on: U251 CNS

Row | SMILES | GI50 [1] | TGI [1] | GI50 [2] | TGI [2] | GI50 [3] | TGI [3] | GI50 [4] | TGI [4] | GI50 [5] | TGI [5] | GI50 [6] | TGI [6] | GI50 [7] | TGI [7] | GI50 [8] | TGI [8] | GI50 [9] | TGI [9] | GI50 [10] | TGI [10]
1 | Cc1ccc(OCCCCCCNCCO)c(C)c1 | 14 µM | 28.8 µM | 16.2 µM | 32.2 µM | 16.3 µM | 35.3 µM | 14.7 µM | 30.1 µM | 16.3 µM | 37.1 µM | 15.5 µM | 29.6 µM | 15.6 µM | 29.8 µM | 14.1 µM | 35.5 µM | 16.3 µM | 33 µM | 12.7 µM | 26.8 µM
2 | COc1cc(C(=O)N/N=C/c2cccc([N+](=O)[O-])c2)cc(OC)c1OC | 5.8 µM | > 100 µM | 2.53 µM | 11.9 µM | 4.3 µM | 54.3 µM | 2.45 µM | 5.74 µM | 3.55 µM | 59.2 µM | 2.39 µM | 6.64 µM | 31.9 µM | > 100 µM | 0.558 µM | > 100 µM | 3.15 µM | > 100 µM | 4.47 µM | 26.1 µM
3 | O=c1[nH]c(-c2ccccn2)nc2sc3c(c12)CCCCCC3 | 5.65 µM | > 100 µM | 3.29 µM | > 100 µM | 4.09 µM | > 100 µM | > 100 µM | > 100 µM | 0.961 µM | > 100 µM | 8.51 µM | > 100 µM | > 100 µM | > 100 µM | 0.864 µM | > 100 µM | 4.85 µM | > 100 µM | 2.16 µM | > 100 µM
4 | O=c1[nH]c2cc(O)ccc2n2cc3c(F)cccc3c12 | 4.29 µM | > 100 µM | 0.903 µM | > 100 µM | 1.38 µM | > 100 µM | 0.785 µM | > 100 µM | 0.698 µM | > 100 µM | 5.77 µM | > 100 µM | 1.65 µM | > 100 µM | 0.509 µM | 28.9 µM | 0.477 µM | > 100 µM | 2.49 µM | > 100 µM
5 | CN1CC(C(=O)NC2(C)OC3(O)C4CCCN4C(=O)C(Cc4ccccc4)N3C2=O)C=C2c3cccc4[nH]cc(c34)CC21 (stereo unspecified) | – | 45 µM | – | 92 µM | – | 81.4 µM | – | 33.3 µM | – | 95.1 µM | – | 43.3 µM | – | > 100 µM | – | 60.7 µM | – | > 100 µM | – | 38.2 µM
6 | CN1CCN(C(=S)SCN2C(=O)c3ccccc3S2(=O)=O)CC1 | 12 µM | 43 µM | 51.9 µM | > 100 µM | 7.93 µM | 22.8 µM | 7.26 µM | 34.1 µM | 34 µM | > 100 µM | 21.9 µM | 63.2 µM | > 100 µM | > 100 µM | 4.04 µM | 13.4 µM | 9.31 µM | 74.9 µM | 26.5 µM | > 100 µM
7 | O=[N+]([O-])c1cccc(-c2ncc(-c3ccc(Cl)cc3Cl)[nH]2)c1 | 5.16 µM | 11 µM | 1.82 µM | 4.71 µM | 8.35 µM | 26.9 µM | 10.3 µM | > 27.2 µM | 11.6 µM | > 83.3 µM | 2.44 µM | 5.93 µM | 22.7 µM | > 70 µM | 0.471 µM | 2.44 µM | 1.6 µM | 3.16 µM | 2.67 µM | 6.96 µM
8 | N#Cc1ccc(N2Cc3cc(Cl)ccc3OC3=C2C(=O)N(Cc2ccccc2)C3=O)cc1 | 1.92 µM | 3.44 µM | 1.39 µM | 2.78 µM | 1.49 µM | 3.68 µM | 0.25 µM | 0.62 µM | 2.69 µM | 11.4 µM | 0.442 µM | 1.54 µM | 10.9 µM | 31.5 µM | 0.242 µM | 0.828 µM | 0.278 µM | 0.971 µM | 1.56 µM | 2.98 µM
9 | CCCCCCCCCCCCCCCCCC1=NC(C)(C)CN1CCO | 1.73 µM | 3.2 µM | 1.6 µM | 3.37 µM | 1.81 µM | 3.49 µM | 1.55 µM | 3.15 µM | 3.16 µM | 11.5 µM | 1.61 µM | 2.97 µM | 1.72 µM | 3.16 µM | 1.5 µM | 4.02 µM | 1.75 µM | 3.21 µM | 1.65 µM | 3.01 µM
10 | CN(C)c1ccc(Sc2ccc3nc(N)nc(N)c3c2)cc1 | 0.495 µM | 2.5 µM | 2.03 µM | 16.8 µM | 0.363 µM | 2.13 µM | 0.934 µM | 11.7 µM | 0.743 µM | 14.9 µM | 1.56 µM | 4.59 µM | 2.71 µM | 16.8 µM | 0.629 µM | 6.71 µM | 0.318 µM | 2.1 µM | 0.446 µM | 4.14 µM
11 | CC(C)(C)c1ccc(S(=O)(=O)N[C@H]2CC[C@H]3[C@@H]4CCc5cc(O)ccc5[C@H]4CC[C@]23C)cc1 | 2.19 µM | 5.02 µM | 2.28 µM | 6.26 µM | 2.02 µM | 4.04 µM | 2.5 µM | 7.13 µM | 2.23 µM | 5.21 µM | 2.09 µM | 3.95 µM | 3.12 µM | 8 µM | 2.17 µM | 6.04 µM | 3.18 µM | 11.8 µM | 1.89 µM | 4.45 µM
12 | C[C@H](NC(=O)CCC(F)(F)F)C(=O)N[C@@H]1C(=O)N(CCO)c2ncccc2-c2ccccc21 | > 100 µM | > 100 µM | > 100 µM | > 100 µM | > 100 µM | > 100 µM | > 100 µM | > 100 µM | > 100 µM | > 100 µM | > 100 µM | > 100 µM | > 100 µM | > 100 µM | > 100 µM | > 100 µM | > 100 µM | > 100 µM | > 100 µM | > 100 µM
13 | COc1ccc(N=C2NN=C(c3c[nH]c4ccccc34)CS2)cc1OC | 12 µM | > 91.5 µM | 8.05 µM | > 79.1 µM | 4.49 µM | > 100 µM | 7.17 µM | > 100 µM | 3.15 µM | > 28 µM | 2.87 µM | > 40.6 µM | 14.2 µM | > 100 µM | 0.181 µM | > 100 µM | 5.68 µM | > 60.4 µM | 6.38 µM | > 100 µM
14 | COc1cc2c(cc1OC)[C@H]1C(=O)c3cc4c(cc3[C@H]1N(C)C2=O)OCO4 | – | > 45.2 µM | – | > 100 µM | – | > 76.6 µM | – | > 75 µM | – | > 100 µM | – | > 100 µM | – | > 100 µM | – | > 100 µM | – | > 100 µM | – | > 100 µM
15 | CC(C)n1nc(C#Cc2cccc(NC(=O)c3cccc(C(F)(F)F)c3)c2)c2c(N)ncnc21 | 2.65 µM | 14.3 µM | 2.06 µM | 12.8 µM | 0.309 µM | 2.03 µM | 1.83 µM | 9.11 µM | 2.83 µM | > 100 µM | 2.96 µM | 28.9 µM | 1.98 µM | 4.55 µM | 3.67 µM | > 100 µM | 2.2 µM | > 100 µM | 3.05 µM | 69.4 µM
16 | N#CC1(C#N)C2C=CC(C3CCC=C32)C1(C#N)C#N (stereo unspecified) | – | > 9.04 µM | – | > 10 µM | – | > 10 µM | – | > 7.9 µM | – | > 10 µM | – | > 10 µM | – | > 10 µM | – | > 10 µM | – | 3.32 µM | – | > 10 µM
17 | CC(=O)Nc1ccc(-n2cnc3cc(-c4ccc(OCCN5CCCCC5)cc4)ccc32)cc1 | 0.803 µM | 1.7 µM | 6.01 µM | 11.7 µM | 5.34 µM | 10.4 µM | 6.79 µM | 13.7 µM | 7.75 µM | 22.5 µM | 5.27 µM | 10.4 µM | 6.2 µM | 12.2 µM | 0.895 µM | 3.74 µM | 0.973 µM | 2.79 µM | 4.16 µM | 9.14 µM
18 | Cc1cc2c(cc1Cl)SC1=NN(C)C(c3ccccc3O)N1S2(=O)=O (stereo unspecified) | > 100 µM | > 100 µM | > 100 µM | > 100 µM | 47.5 µM | > 100 µM | > 100 µM | > 100 µM | 39 µM | > 100 µM | 46 µM | > 100 µM | > 100 µM | > 100 µM | 36.6 µM | > 100 µM | 94.5 µM | > 100 µM | 47.7 µM | > 100 µM
19 | CCN(CC)CCOc1ccc(C2=C(c3ccccc3)CCc3cc(OC)ccc32)cc1 | 1.51 µM | 2.88 µM | 2.18 µM | 5.86 µM | 1.88 µM | 3.82 µM | 3.03 µM | 9.25 µM | 3.17 µM | 12.7 µM | 5.64 µM | 15.7 µM | 3.22 µM | 13.6 µM | 0.518 µM | – | 2.78 µM | 8.09 µM | 2.29 µM | 7.07 µM
20 | CN1C(=O)C23CC4=CC=CC(O)C4N2C(=O)C1(CO)SS3 (stereo unspecified) | – | 0.222 µM | – | 0.759 µM | – | 0.295 µM | – | 0.338 µM | – | 0.0661 µM | – | 0.33 µM | – | 2.75 µM | – | 0.0996 µM | – | 0.634 µM | – | 0.448 µM
21 | O=C(Cc1nc2ccc([N+](=O)[O-])cc2[nH]c1=O)C(=O)Nc1cc(Cl)c(Cl)cc1Cl | – | > 100 µM | – | > 100 µM | – | > 100 µM | – | > 100 µM | – | > 100 µM | – | > 100 µM | – | > 100 µM | – | > 100 µM | – | > 100 µM | – | > 100 µM
22 | C[C@]12CC[C@@H]3c4ccc(O)cc4CC[C@H]3[C@@H]1CC[C@@H]2NS(=O)(=O)c1ccc(-c2ccccc2)cc1 | 3.82 µM | 22.5 µM | 3.57 µM | > 100 µM | 3.46 µM | 12.9 µM | 4.26 µM | 27.2 µM | 3.87 µM | > 100 µM | 3.32 µM | 12.7 µM | 6.79 µM | > 100 µM | 4.1 µM | 66.4 µM | 5.54 µM | > 100 µM | 4 µM | 32.6 µM
23 | COc1cc(C2c3cc4c(cc3[C@@H](Nc3cccc(O)c3)C3COC(=O)[C@H]23)OCO4)cc(OC)c1O (stereo partly specified) | 0.98 µM | 5.36 µM | 0.242 µM and 0.69 µM | 4.59 µM | 0.991 µM | 14.1 µM | 0.571 µM | 5.51 µM | – | 21.5 µM | – | 12.6 µM | – | 18 µM | 0.0674 µM | 0.816 µM and 4.6 µM | 0.77 µM | 41 µM | 0.732 µM | 9.22 µM
